Consider two compounds from ChEMBL document CHEMBL5537192, “Specific Inhibitors of Mitochondrial Deacylase Sirtuin 4 Endowed with Cellular Activity” (J Med Chem, 2024).

Data set [1] concerns the target T1, NAD-dependent protein lipoamidase sirtuin-4, mitochondrial (Homo sapiens, UniProt Q9Y6E7).
T1 sequence (Q9Y6E7 whole entry): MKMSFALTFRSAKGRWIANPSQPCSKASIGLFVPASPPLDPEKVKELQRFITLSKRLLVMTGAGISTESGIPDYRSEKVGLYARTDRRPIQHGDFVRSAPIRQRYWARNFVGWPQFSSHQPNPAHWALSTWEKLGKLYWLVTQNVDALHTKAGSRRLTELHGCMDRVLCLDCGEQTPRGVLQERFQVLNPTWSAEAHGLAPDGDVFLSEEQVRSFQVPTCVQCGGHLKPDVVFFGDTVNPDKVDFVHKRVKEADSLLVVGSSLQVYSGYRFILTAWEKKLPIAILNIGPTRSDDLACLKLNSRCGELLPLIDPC
Description: Inhibition of N-terminal 6His-tagged human Sirt4 (25 to 314 residues) expressed in Escherichia coli CodonPlus(DE3) cells using HMG-FdL as substrate at 100 uM preincubated for 20 mins followed by NAM addition and measured after 45 mins in presence of NAD+ by fluorescence based assay relative to control.

The test system of data set [2] is C2C12. Kind of data set: Cytotoxicity against mouse C2C12 cells assessed as effect o cell viability at 1 to 100 uM incubated for 4 hrs by trypan blue reagent based phase contrast microscopic analysis. The class given is toxicity. Particulars: c2c12, 4 h, dose 1-100 µM.

The term IC50 denotes the concentration at which inhibition is half-maximal. Consider `NC(=O)C1=CN([C@@H]2O[C@H](COP(=O)(O)OP(=O)(O)OC[C@H]3O[C@@H](n4cnc5c(N)ncnc54)[C@H](O)[C@@H]3O)[C@@H](O)[C@H]2O)C=CC1`, for which the IC50 in data set [1] was around 126 µM.

For the compound `CCCc1cc(=O)[nH]c(SCC(=O)Nc2ccc(S(=O)(=O)c3ccc([N+](=O)[O-])cc3)cc2)n1`, the Activity result in data set [2] is given as “Non-Toxic”.
